Test results taken from patent US12582638B2, “Pharmaceutical composition for treating cancer, containing mTOR-signaling inhibitor as active ingredient” (KOREA ADVANCED INSTITUTE OF SCIENCE AND TECHNOLOGY, priority 2020, dated 2026).

Key:
Experiment in all cases: Cell viability, CellTiterGlo, 72 hours
Type in all cases: cell-based
BT-20 = conditions: Homo sapiens, BT-20 cells, Breast
Protocol: (§1) In addition to the colorectal cells, 120 cancer cell lines treated with various concentrations of lomitapide were assayed for viability. To analyze cell viability, the cells were incubated with lomitapide at 37° C. for 72 hours in a 5% or 10% CO2 atmosphere and then equilibrated at room temperature for 1 hour, followed by addition of CellTiterGlo reagent (Promega). One hour later, luminescence was measured to calculate cell viability (%). The 120 cell lines were purchased from ATCC (American Type Culture Collection, Virginia, USA).

T84 = conditions: Homo sapiens, T84 cells, Colon
Protocol: as §1

HCC 1569 = conditions: Homo sapiens, HCC1569, HCC 1569 cells, Breast
Protocol: as §1

MKN-45 = conditions: Homo sapiens, MKN-45 cells, Stomach
Protocol: as §1

A2780 = conditions: Homo sapiens, A2780 cells, Ovary
Protocol: as §1

HCT116 = conditions: Homo sapiens, HCT-116, HCT116 cells, Colon
Protocol: as §1

MOLT-4 = conditions: Homo sapiens, MOLT-4 cells, Blood
Protocol: as §1

AsPC-1 = conditions: Homo sapiens, ASPC1, AsPC-1 cells, Pancreas
Protocol: as §1

SK-LU-1 = conditions: Homo sapiens, SK-LU-1 cells, Lung
Protocol: as §1

HCT-15 = conditions: Homo sapiens, HCT-15 cells, Colon
Protocol: as §1

Ishikawa = conditions: Homo sapiens, Ishikawa cells, Endometrium
Protocol: as §1

H2228 = conditions: Homo sapiens, NCI-H2228, H2228 cells, Lung
Protocol: as §1

RL95-2 = conditions: Homo sapiens, RL95-2 cells, Endometrium
Protocol: as §1

MKN-1 = conditions: Homo sapiens, MKN-1 cells, Stomach
Protocol: as §1

Mia PaCA 2 = conditions: Homo sapiens, Mia PaCA 2 cells, Pancreas
Protocol: as §1

SNU-216 = SNU-216 cells, Stomach
Protocol: as §1

P31/FUJ = conditions: Homo sapiens, P31/FUJ cells, Blood
Protocol: as §1

OVCAR-3 = conditions: Homo sapiens, OVCAR-3 cells, Ovary
Protocol: as §1

OPM-2 = conditions: Homo sapiens, OPM-2 cells, Blood
Protocol: as §1

SW948 = conditions: Homo sapiens, SW948 cells, Colon
Protocol: as §1

HCC827 = conditions: Homo sapiens, HCC827 cells, Lung
Protocol: as §1

HEC-1-B = conditions: Homo sapiens, HEC-1-B cells, Endometrium
Protocol: as §1

U118MG = conditions: Homo sapiens, U-118-MG, U118MG cells, Brain
Protocol: as §1

KARPAS 299 = conditions: Homo sapiens, KARPAS 299 cells, Blood
Protocol: as §1

NCI-H2009 = conditions: Homo sapiens, NCI-H2009 cells, Lung
Protocol: as §1

EFM-192A = EFM-192A cells, Breast
Protocol: as §1

SK-ES-1 = conditions: Homo sapiens, SK-ES1, SK-ES-1 cells, Bone
Protocol: as §1

BEN = BEN cells, Lung
Protocol: as §1

M07e = conditions: M-07e, M07e cells, Blood
Protocol: as §1

Kato III = conditions: Homo sapiens, Kato III cells, Stomach
Protocol: as §1

SK-N-FI = conditions: Homo sapiens, SK-N-FI cells, Brain
Protocol: as §1

NCI-H1838 = conditions: Homo sapiens, NCI-H1838 cells, Lung
Protocol: as §1

NCI-H1581 = conditions: Homo sapiens, NCI-H1581 cells, Lung
Protocol: as §1

LOU-NH91 = LOU-NH91 cells, Lung
Protocol: as §1

HT-29 = conditions: Homo sapiens, HT-29 cells, Colon
Protocol: as §1

LnCap = conditions: Homo sapiens, LnCap cells, Prostate
Protocol: as §1

NCI-H1048 = conditions: Homo sapiens, NCI-H1048 cells, Lung
Protocol: as §1

PANC-1 = conditions: Homo sapiens, PANC-1 cells, Pancreas
Protocol: as §1

A549 = conditions: Homo sapiens, A549 cells, Lung
Protocol: as §1

NCI-N87 = conditions: Homo sapiens, NCI-N87 cells, Stomach
Protocol: as §1

O=C(NC1CCN(CCCCC2(C(=O)NCC(F)(F)F)c3ccccc3-c3ccccc32)CC1)c1ccccc1-c1ccc(C(F)(F)F)cc1 [lomitapide, N-(2,2,2-trifluoroethyl)-9-[4-[4-[[[4′-(trifluoromethyl)[1,1′-biphenyl]2-yl]carbonyl]amino]-1-piperidinyl]butyl]-9H-fluoren-9-carboxamide]
IC50 (BT-20): 5 µM | IC50 (T84): 3.2 µM | IC50 (HCC 1569): 2.9 µM | IC50 (MKN-45): 3.9 µM | IC50 (A2780): 2.7 µM | IC50 (HCT116): 5 µM | IC50 (MOLT-4): 3.6 µM | IC50 (AsPC-1): 3.6 µM | IC50 (SK-LU-1): 4.6 µM | IC50 (HCT-15): 3.5 µM | IC50 (Ishikawa): 3.6 µM | IC50 (H2228): 5.3 µM | IC50 (RL95-2): 3.2 µM | IC50 (MKN-1): 3.7 µM | IC50 (Mia PaCA 2): 2.9 µM | IC50 (SNU-216): 3.1 µM | IC50 (P31/FUJ): 3.1 µM | IC50 (OVCAR-3): 5.3 µM | IC50 (OPM-2): 4.4 µM | IC50 (SW948): 4.5 µM | IC50 (HCC827): 4.1 µM | IC50 (HEC-1-B): 6.9 µM | IC50 (U118MG): 2.5 µM | IC50 (KARPAS 299): 1.4 µM | IC50 (NCI-H2009): 3.3 µM | IC50 (EFM-192A): 4 µM | IC50 (SK-ES-1): 3.5 µM | IC50 (BEN): 4.2 µM | IC50 (M07e): 4.2 µM | IC50 (Kato III): 5.4 µM | IC50 (SK-N-FI): 3.4 µM | IC50 (NCI-H1838): 4 µM | IC50 (NCI-H1581): 3.7 µM | IC50 (LOU-NH91): 5.7 µM | IC50 (HT-29): 1.6 µM | IC50 (LnCap): 3.5 µM | IC50 (NCI-H1048): 5.5 µM | IC50 (PANC-1): 4.5 µM | IC50 (A549): 3.6 µM | IC50 (NCI-N87): 3.3 µM
